Results taken from patent US20110087037A1, “SYNTHESIS OF RING B ABEO-STEROLS AS NOVEL INHIBITORS OF MYCOBACTERIUM TUBERCULOSIS” (priority 2007, published 2011).
Values after ≈ are worked out from the molar mass of the structure shown. “Also recorded” adds a separate entry of the source. Like-named read-outs stand apart in the source and are kept apart here.

What was measured:
Mtb H37Rv (ATCC 27294) = experiment: Microplate Alamar Blue Assay (MABA), in vitro M. tuberculosis growth inhibition; type: cell-based, Mycobacterium tuberculosis; conditions: for meaningful activity against Mtb: at 64 μg/mL
VERO cells (ATCC CCL-81) = experiment: Cytotoxicity against VERO cells; type: cell-based
[1] = patients on TB therapy; cited from earlier work
[2] = 16 μg/mL, Mtb H37Rv, MABA, mean of three experiments
[3] = 32 μg/mL, Mtb H37Rv, MABA, mean of three experiments
[4] = 64 μg/mL, Mtb H37Rv, MABA, mean of three experiments
[5] = 128 μg/mL, Mtb H37Rv, MABA, mean of three experiments
[6] = lowest drug concentration that effected an inhibition of ≧90% relative to untreated cultures, Mtb H37Rv
[7] = 2 μg/mL, Mtb H37Rv, MABA, mean of three experiments
[8] = 4 μg/mL, Mtb H37Rv, MABA, mean of three experiments
[9] = 8 μg/mL, Mtb H37Rv, MABA, mean of three experiments

SMILES: C=C(CC[C@@H](C)[C@H]1CC[C@H]2[C@@H]3CC=C4C[C@@H](O)CC[C@]4(C)[C@H]3CC[C@]12C)C(C)C [Compound 1]
- activity against M. tuberculosis H37Rv (Mtb H37Rv (ATCC 27294)): only marginal activity
- % Inhibition (Mtb H37Rv (ATCC 27294); [2]): 33%
- % Inhibition (Mtb H37Rv (ATCC 27294); [3]): 43%
- % Inhibition (Mtb H37Rv (ATCC 27294); [4]): 40%
- % Inhibition (Mtb H37Rv (ATCC 27294); [5]): 97%
- meaningful activity against Mtb (Mtb H37Rv (ATCC 27294)): none
- MIC (Mtb H37Rv (ATCC 27294); [6]): 120.1 µg/mL (≈ 301 µM)
- Cyto-toxicity IC50 (VERO cells (ATCC CCL-81)): >128 (n.d.) μg/mL

SMILES: C=C(CC[C@@H](C)[C@H]1CC[C@H]2[C@@H]3C(C=O)=C4C[C@@H](O)CC[C@]4(C)[C@H]3CC[C@]12C)C(C)C [Compound 2]
- % Inhibition (Mtb H37Rv (ATCC 27294); [7]): 52%
- % Inhibition (Mtb H37Rv (ATCC 27294); [8]): 69%
- % Inhibition (Mtb H37Rv (ATCC 27294); [9]): 91%
- % Inhibition (Mtb H37Rv (ATCC 27294); [2]): 105%
- % Inhibition (Mtb H37Rv (ATCC 27294); [3]): 99%
- % Inhibition (Mtb H37Rv (ATCC 27294); [4]): 99%
- % Inhibition (Mtb H37Rv (ATCC 27294); [5]): 99%
- MIC (Mtb H37Rv (ATCC 27294); [6]): 7.8 µg/mL (≈ 18.9 µM)
- Cyto-toxicity IC50 (VERO cells (ATCC CCL-81)): 51 µg/mL

SMILES: CC(C)C(=O)CC[C@@H](C)[C@H]1CC[C@H]2[C@@H]3C(C=O)=C4C[C@@H](O)CC[C@]4(C)[C@H]3CC[C@]12C [Compound 3]
- % Inhibition (Mtb H37Rv (ATCC 27294); [7]): 52%
- % Inhibition (Mtb H37Rv (ATCC 27294); [8]): 67%
- % Inhibition (Mtb H37Rv (ATCC 27294); [9]): 83%
- % Inhibition (Mtb H37Rv (ATCC 27294); [2]): 92%
- % Inhibition (Mtb H37Rv (ATCC 27294); [3]): 96%
- % Inhibition (Mtb H37Rv (ATCC 27294); [4]): 100%
- % Inhibition (Mtb H37Rv (ATCC 27294); [5]): 99%
- MIC (Mtb H37Rv (ATCC 27294); [6]): 13.6 µg/mL (≈ 32.8 µM)
- Cyto-toxicity IC50 (VERO cells (ATCC CCL-81)): 43.8 µg/mL

SMILES: CCC(CCC(C)C1CCC2C3CC=C4CC(O)CCC4(C)C3CCC12C)C(C)C (centres unmarked) [Compound 4]
- % Inhibition (Mtb H37Rv (ATCC 27294); [7]): −1%
- % Inhibition (Mtb H37Rv (ATCC 27294); [8]): 8%
- % Inhibition (Mtb H37Rv (ATCC 27294); [9]): 7%
- % Inhibition (Mtb H37Rv (ATCC 27294); [2]): 32%
- % Inhibition (Mtb H37Rv (ATCC 27294); [3]): 31%
- % Inhibition (Mtb H37Rv (ATCC 27294); [4]): 48%
- % Inhibition (Mtb H37Rv (ATCC 27294); [5]): 45%
- meaningful activity against Mtb (Mtb H37Rv (ATCC 27294)): none
- MIC (Mtb H37Rv (ATCC 27294); [6]): >128 µg/mL
- Cyto-toxicity IC50 (VERO cells (ATCC CCL-81)): >128 (n.d.) μg/mL

SMILES: CCC(CCC(C)C1CCC2C3C(C=O)=C4CC(O)CCC4(C)C3CCC12C)C(C)C (centres unmarked) [Compound 5]
- % Inhibition (Mtb H37Rv (ATCC 27294); [7]): 29%
- % Inhibition (Mtb H37Rv (ATCC 27294); [8]): 97%
- % Inhibition (Mtb H37Rv (ATCC 27294); [9]): 99%
- % Inhibition (Mtb H37Rv (ATCC 27294); [2]): 98%
- % Inhibition (Mtb H37Rv (ATCC 27294); [3]): 99%
- % Inhibition (Mtb H37Rv (ATCC 27294); [4]): 99%
- % Inhibition (Mtb H37Rv (ATCC 27294); [5]): 99%
- MIC (Mtb H37Rv (ATCC 27294); [6]): 3.8 µg/mL (≈ 8.86 µM)
- Cyto-toxicity IC50 (VERO cells (ATCC CCL-81)): 26.6 µg/mL

SMILES: CC(C)CCC[C@@H](C)[C@H]1CC[C@H]2[C@@H]3CC=C4C[C@@H](O)CC[C@]4(C)[C@H]3CC[C@]12C [Compound 6, cholesterol]
- inhibition at 16 µg/mL (Mtb H37Rv (ATCC 27294); Mycobacterium tuberculosis, 16 μg/mL, Mtb H37Rv, MABA, mean of three experiments): 33%
- inhibition at 32 µg/mL (Mtb H37Rv (ATCC 27294); Mycobacterium tuberculosis, 32 μg/mL, Mtb H37Rv, MABA, mean of three experiments): 13%
- inhibition at 64 µg/mL (Mtb H37Rv (ATCC 27294); Mycobacterium tuberculosis, 64 μg/mL, Mtb H37Rv, MABA, mean of three experiments): 24%
- inhibition at 128 µg/mL (Mtb H37Rv (ATCC 27294); Mycobacterium tuberculosis, 128 μg/mL, Mtb H37Rv, MABA, mean of three experiments): 57%
- MIC (Mtb H37Rv (ATCC 27294); Mycobacterium tuberculosis, read-out: MIC): > 128 µg/mL
- meaningful activity against Mtb (Mtb H37Rv (ATCC 27294)): none

SMILES: CC(C)CCC[C@@H](C)[C@H]1CC[C@H]2[C@@H]3C(C=O)=C4C[C@@H](O)CC[C@]4(C)[C@H]3CC[C@]12C [Compound 7]
- % Inhibition (Mtb H37Rv (ATCC 27294); [7]): 10%
- % Inhibition (Mtb H37Rv (ATCC 27294); [8]): 34%
- % Inhibition (Mtb H37Rv (ATCC 27294); [9]): 51%
- % Inhibition (Mtb H37Rv (ATCC 27294); [2]): 96%
- % Inhibition (Mtb H37Rv (ATCC 27294); [3]): 99%
- % Inhibition (Mtb H37Rv (ATCC 27294); [4]): 99%
- % Inhibition (Mtb H37Rv (ATCC 27294); [5]): 99%
- MIC (Mtb H37Rv (ATCC 27294); [6]): 15 µg/mL (≈ 37.4 µM)
- Cyto-toxicity IC50 (VERO cells (ATCC CCL-81)): > 128 µg/mL

SMILES: CC(C)C(C)C1(C)CC1C(C)C1CCC2C3CC=C4CC(O)CCC4(C)C3CCC12C (centres unmarked) [Compound 8]
- % Inhibition (Mtb H37Rv (ATCC 27294); [2]): 10%
- % Inhibition (Mtb H37Rv (ATCC 27294); [3]): 13%
- % Inhibition (Mtb H37Rv (ATCC 27294); [4]): 18%
- % Inhibition (Mtb H37Rv (ATCC 27294); [5]): 38%
- meaningful activity against Mtb (Mtb H37Rv (ATCC 27294)): none
- MIC (Mtb H37Rv (ATCC 27294); [6]): >128 µg/mL
- Cyto-toxicity IC50 (VERO cells (ATCC CCL-81)): >128 (n.d.) μg/mL

SMILES: CC(C)C(C)C1(C)CC1C(C)C1CCC2C3C(C=O)=C4CC(O)CCC4(C)C3CCC12C (centres unmarked) [Compound 9]
- % Inhibition (Mtb H37Rv (ATCC 27294); [7]): 17%
- % Inhibition (Mtb H37Rv (ATCC 27294); [8]): 33%
- % Inhibition (Mtb H37Rv (ATCC 27294); [9]): 81%
- % Inhibition (Mtb H37Rv (ATCC 27294); [2]): 96%
- % Inhibition (Mtb H37Rv (ATCC 27294); [3]): 98%
- % Inhibition (Mtb H37Rv (ATCC 27294); [4]): 99%
- % Inhibition (Mtb H37Rv (ATCC 27294); [5]): 99%
- MIC (Mtb H37Rv (ATCC 27294); [6]): 12.7 µg/mL (≈ 28.8 µM)

SMILES: CC(C)[C@@H](C)CC[C@@H](C)[C@H]1CC[C@H]2[C@@H]3CC=C4C[C@@H](O)CC[C@]4(C)[C@H]3CC[C@]12C [Compound 10]
- % Inhibition (Mtb H37Rv (ATCC 27294); [7]): 15%
- % Inhibition (Mtb H37Rv (ATCC 27294); [8]): 14%
- % Inhibition (Mtb H37Rv (ATCC 27294); [9]): 23%
- % Inhibition (Mtb H37Rv (ATCC 27294); [2]): 21%
- % Inhibition (Mtb H37Rv (ATCC 27294); [3]): 31%
- % Inhibition (Mtb H37Rv (ATCC 27294); [4]): 41%
- % Inhibition (Mtb H37Rv (ATCC 27294); [5]): 58%
- meaningful activity against Mtb (Mtb H37Rv (ATCC 27294)): none
- MIC (Mtb H37Rv (ATCC 27294); [6]): >128 µg/mL
- Cyto-toxicity IC50 (VERO cells (ATCC CCL-81)): >128 (n.d.) μg/mL

SMILES: CC(C)[C@@H](C)CC[C@@H](C)[C@H]1CC[C@H]2[C@@H]3C(C=O)=C4C[C@@H](O)CC[C@]4(C)[C@H]3CC[C@]12C [Compound 11]
- % Inhibition (Mtb H37Rv (ATCC 27294); [7]): 39%
- % Inhibition (Mtb H37Rv (ATCC 27294); [8]): 94%
- % Inhibition (Mtb H37Rv (ATCC 27294); [9]): 97%
- % Inhibition (Mtb H37Rv (ATCC 27294); [2]): 99%
- % Inhibition (Mtb H37Rv (ATCC 27294); [3]): 99%
- % Inhibition (Mtb H37Rv (ATCC 27294); [4]): 100%
- % Inhibition (Mtb H37Rv (ATCC 27294); [5]): 99%
- MIC (Mtb H37Rv (ATCC 27294); [6]): 3.9 µg/mL (≈ 9.4 µM)

SMILES: CC[C@@H](CO)NCCN[C@@H](CC)CO [Ethambutol]
- Adverse reactions, Infrequent (≧1 per 1,000 patients and <1 per 100 patients) [1]: Retrobulbar neuritis; also recorded: Periaxial ocular toxicity

SMILES: NNC(=O)c1ccncc1 [Isoniazid]
- Adverse reactions, Frequent (≧5 per 100 patients) [1]: Liver enzyme
- Adverse reactions, Infrequent (≧1 per 1,000 patients and <1 per 100 patients) [1]: Hepatitis; also recorded: Peripheral neuropathy; also recorded: Drug fever

SMILES: NC(=O)c1cnccn1 [Pyrazinamide]
- Adverse reactions, Common (≧1-5 per 100 patients) [1]: Nausea
- Adverse reactions, Frequent (≧5 per 100 patients) [1]: Arthralgias
- Adverse reactions, Infrequent (≧1 per 1,000 patients and <1 per 100 patients) [1]: Hepatitis and Rash and Nausea

SMILES: CO[C@H]1/C=C/O[C@@]2(C)Oc3c(C)c(O)c4c(O)c(c(/C=N/N5CCN(C)CC5)c(O)c4c3C2=O)NC(=O)/C(C)=C\C=C\[C@H](C)[C@H](O)[C@@H](C)[C@@H](O)[C@@H](C)[C@H](OC(C)=O)[C@@H]1C [RMP, Rifampin]
- Adverse reactions, Frequent (≧5 per 100 patients) [1]: Liver enzyme elevations; also recorded: Orange discoloration
- Adverse reactions, Infrequent (≧1 per 1,000 patients and <1 per 100 patients) [1]: Hepatitis; also recorded: Pruritus; also recorded: Flu syndrome; also recorded: Drug fever

SMILES: [H]/N=C(/N)N[C@H]1[C@H](O)[C@@H](O)[C@H](O[C@@H]2O[C@@H](C)[C@](O)(C=O)[C@H]2O[C@@H]2O[C@@H](CO)[C@H](O)[C@@H](O)[C@@H]2NC)[C@@H](N/C(N)=N\[H])[C@@H]1O [Streptomycin]
- Adverse reactions, Common (≧1-5 per 100 patients) [1]: Cochlear toxicity; also recorded: Hypersensitivity
- Adverse reactions, Frequent (≧5 per 100 patients) [1]: Vestibular toxicity
- Adverse reactions, Infrequent (≧1 per 1,000 patients and <1 per 100 patients) [1]: Renal damage
